In paper PMC11678797, “A Repurposed Drug Selection Pipeline to Identify CNS-Penetrant Drug Candidates for Glioblastoma” (Pharmaceuticals, 2024):

Tests used:
[1] = tested on: GS607 glioblastoma patient-derived cell culture; experiment: In vitro drug screening, cell viability by CellTiter GLO 2.0 after 5 days; format: cell-based; conditions: Homo sapiens, 120 h, 5 days incubation
Procedure: (§1) Glioblastoma stem-like cell cultures (GSC) were derived from primary brain tumor samples received directly from the operating room. Tumor classification was performed by the local neuropathologist according to guidelines of the WHO 2007 and 2016 classification of primary brain tumors. The use of patient tissue for this study was approved by the local ethics committee and all patients signed informed consent forms according to the guidelines of the Institutional Review Board. Samples were processed as described previously. The GBM8 cell line was kindly provided by dr. Hiroaki Wakimoto (Massachusetts General Hospital, Boston, MA, USA). All cell cultures were grown in Dulbecco’s modified Eagle’s medium (DMEM)–F12 with 1% penicillin/streptomycin, B27 (Invitrogen), human epidermal growth factor (EGF; 5 μg/mL), human basic fibroblast growth factor (FGF; 5 μg/mL) (both from Tebu-Bio) and heparin ([…]; Sigma-Aldrich, St. Louis, MI, USA).
(§2) Glioma stem-like cell cultures were cultured under serum free conditions according to Verheul et al.. Cells were seeded in 96-well plates (Greiner bio-one, Kremsmünster, Austria) coated with extracellular matrix (BD Bioscience, Becton Drive Franklin Lakes, NJ, USA) at 1000 cells/well. A stock solution of OMA was diluted in a serum-free cell culture medium to obtain a starting concentration of 8 μM in 0.1% DMSO. Serial dilutions of OMA and DMSO were added to the wells 24 h later for an incubation period of 5 days. Cell viability was measured by the CellTiter GLO 2.0 and dose–response curves and IC50 values were calculated using GraphPad Prism version 9. All experiments were performed in 3 biological replicates.
(§3) GraphPad Prism software version 9.5 (GraphPad Software) was used for calculating IC50 values using nonlinear regression (curve-fit). GraphPad Prism was used to determine whether there was a statistically significant difference in OMA concentration and the B/P ratio between the L and R hemispheres of mice bearing GS832, GS607 and GBM8 tumors, using an unpaired t-test. […]

[2] = tested on: GS832 glioblastoma patient-derived cell culture; experiment: as above; format: cell-based; conditions: Homo sapiens, 120 h, 5 days incubation
Procedure: as §1, §2, §3

[3] = tested on: GBM8 glioblastoma patient-derived cell culture; experiment: as above; format: cell-based; conditions: Homo sapiens, 120 h, 5 days incubation
Procedure: as §1, §2, §3

[4] = humans, cited from earlier work
[5] = target: T1, human P-gp (ABCB1) (Homo sapiens, UniProt P08183); experiment: Concentration equilibrium transport assay (CETA), LLC-PK1 cells transduced with human ABCB1; format: in vitro ADME; conditions: omacetaxine 100 nM, up to 4 h
T1 construct: expressed in transfected cells; host or cells: LLC-PK1 (pig kidney) cells transduced with human ABCB1 (LLC-MDR1)
T1 sequence (P08183 whole entry): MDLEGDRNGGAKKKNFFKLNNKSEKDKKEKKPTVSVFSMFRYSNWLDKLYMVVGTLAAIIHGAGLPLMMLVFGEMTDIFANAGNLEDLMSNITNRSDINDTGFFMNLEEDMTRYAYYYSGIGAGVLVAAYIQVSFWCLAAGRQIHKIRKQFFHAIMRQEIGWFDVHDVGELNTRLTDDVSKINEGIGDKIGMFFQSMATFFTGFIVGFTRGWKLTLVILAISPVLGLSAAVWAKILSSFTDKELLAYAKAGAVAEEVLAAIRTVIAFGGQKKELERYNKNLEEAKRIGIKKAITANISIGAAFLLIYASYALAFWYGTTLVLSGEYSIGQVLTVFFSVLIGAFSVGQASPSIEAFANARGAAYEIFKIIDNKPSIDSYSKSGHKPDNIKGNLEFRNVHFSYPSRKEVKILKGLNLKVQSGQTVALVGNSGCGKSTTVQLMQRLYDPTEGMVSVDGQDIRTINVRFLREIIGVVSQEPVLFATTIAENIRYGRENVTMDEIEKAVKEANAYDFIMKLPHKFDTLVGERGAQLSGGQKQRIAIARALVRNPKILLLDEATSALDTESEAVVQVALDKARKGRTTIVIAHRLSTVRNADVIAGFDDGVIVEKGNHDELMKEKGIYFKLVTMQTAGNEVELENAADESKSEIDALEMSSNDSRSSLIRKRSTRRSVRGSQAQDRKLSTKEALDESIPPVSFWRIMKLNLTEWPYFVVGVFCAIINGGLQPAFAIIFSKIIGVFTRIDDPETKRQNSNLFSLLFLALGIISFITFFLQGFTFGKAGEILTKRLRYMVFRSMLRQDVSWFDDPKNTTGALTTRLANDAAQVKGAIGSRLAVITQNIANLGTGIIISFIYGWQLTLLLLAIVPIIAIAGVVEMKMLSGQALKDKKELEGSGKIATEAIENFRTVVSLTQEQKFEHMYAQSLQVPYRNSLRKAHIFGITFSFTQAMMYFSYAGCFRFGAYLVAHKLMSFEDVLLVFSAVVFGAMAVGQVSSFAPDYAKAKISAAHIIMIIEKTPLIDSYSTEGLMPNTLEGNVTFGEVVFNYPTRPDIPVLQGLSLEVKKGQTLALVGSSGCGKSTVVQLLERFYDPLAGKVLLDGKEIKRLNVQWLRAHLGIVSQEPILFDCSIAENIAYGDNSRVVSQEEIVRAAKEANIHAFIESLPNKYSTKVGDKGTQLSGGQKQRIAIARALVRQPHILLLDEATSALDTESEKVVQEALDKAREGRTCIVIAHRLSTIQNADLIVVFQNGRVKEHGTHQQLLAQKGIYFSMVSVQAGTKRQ
Procedure: (§4) In vitro transport studies were performed using the LLC pig kidney cell line (LLC-PK1) and sub-lines transduced with murine Abcb1a (LLC-Mdr1a) or human ABCB1 (LLC-MDR1). Similarly, in vitro transport studies were conducted in the parental Madin–Darby canine kidney (MDCK) type II cell line (MDCK-Parent) and murine Abcg2 (MDCK-Bcrp1) or human ABCG2 (MDCK-BCRP) transduced sublines. Concentration equilibrium transport assays (CETA) were performed as previously described. Briefly, cells were grown on polycarbonate membrane filters (3.0 µm pores, 24 mm diameter; Costar Corning, NY, USA) for 4 days. Next, 2 mL of MEM medium containing 10% FCS and omacetaxine (100 nM) was added to both the apical and basal compartments. Then, [14C]-inulin ([…]) was added basolateral to check the membrane integrity. Zosuquidar 1 μM was added to all wells containing MDCK cells to inhibit endogenous (canine) ABCB1. […] The integrity of the membrane was checked by taking 20 μL samples from both apical and basolateral sides for radioactivity counting. […] OMA concentrations were measured using an LC-MS/MS system that consisted of an UltiMate 3000 LC System (Dionex, Sunnyvale, CA, USA) and an API 4000 mass spectrometer (Sciex, Framingham, MA, USA).

[6] = target: T2, murine BCRP (Abcg2) (Mus musculus, UniProt Q7TMS5); experiment: Concentration equilibrium transport assay (CETA), MDCK cells transduced with murine Abcg2, with zosuquidar; format: in vitro ADME; conditions: omacetaxine 100 nM, zosuquidar 1 μM, up to 4 h
T2 construct: expressed in transfected cells; host or cells: MDCK type II (canine kidney) cells transduced with murine Abcg2 (MDCK-Bcrp1)
T2 sequence (Q7TMS5 1-657): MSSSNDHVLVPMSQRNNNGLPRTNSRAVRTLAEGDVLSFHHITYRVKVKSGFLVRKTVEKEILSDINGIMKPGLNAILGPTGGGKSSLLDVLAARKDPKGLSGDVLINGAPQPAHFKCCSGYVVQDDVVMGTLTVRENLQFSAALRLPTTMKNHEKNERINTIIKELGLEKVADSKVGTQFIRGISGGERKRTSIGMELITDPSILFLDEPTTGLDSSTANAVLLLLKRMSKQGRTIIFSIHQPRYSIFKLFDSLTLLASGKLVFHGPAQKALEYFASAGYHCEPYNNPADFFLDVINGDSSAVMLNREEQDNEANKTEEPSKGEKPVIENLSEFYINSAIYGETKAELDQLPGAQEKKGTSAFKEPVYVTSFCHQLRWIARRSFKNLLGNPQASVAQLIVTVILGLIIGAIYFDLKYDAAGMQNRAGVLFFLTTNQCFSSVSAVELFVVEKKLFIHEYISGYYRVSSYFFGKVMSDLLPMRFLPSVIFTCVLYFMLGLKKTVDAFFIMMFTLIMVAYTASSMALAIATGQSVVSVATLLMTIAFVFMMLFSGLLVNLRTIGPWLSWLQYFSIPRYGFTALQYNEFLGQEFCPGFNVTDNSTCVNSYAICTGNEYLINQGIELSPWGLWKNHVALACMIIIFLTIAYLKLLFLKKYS
Procedure: as §4

## COC(=O)C[C@](O)(CCCC(C)(C)O)C(=O)O[C@@H]1C(OC)=C[C@]23CCCN2CCc2cc4c(cc2[C@H]13)OCO4 [OMA, Omacetaxine mepesuccinate]
[1]
  IC50: 22.9 nM
[2]
  IC50: 4.9 nM
[3]
  IC50: 7.2 nM
[4]; s.c. administration
  time to reach Cmax plasma: 1 h
[4]; DrugBank, read-out: reported Cmax plasma value
  Cmax: 43 nM
[4]
  half-life: 7 h
[5]
  substrate of P-gp (translocation basolateral to apical): weak substrate
[6]
  substrate of BCRP (translocation between apical and basolateral compartments): not a substrate
